Biological target: PD-1/PD-L1 (Homo sapiens (Human), UniProt Q9NZQ7)
Test: PD-1/PD-L1 Homogenous Time-Resolved Fluorescence (HTRF) binding assay
Details: PD-L1-His 10 nM, PD-1-Ig 20 nM
Excerpt: The ability of the compounds of formula (I) to bind to PD-L1 was investigated using a PD-1/PD-L1 Homogenous Time-Resolved Fluorescence (HTRF) binding assay.
Homogenous Time-Resolved Fluorescence (HTRF) binding assay.
The interaction of PD-1 and PD-L1 can be assessed using soluble, purified preparations of the extracellular domains of the two proteins. The PD-1 and PD-L1 protein extracellular domains were expressed as fusion proteins with detection tags, for PD-1, the tag was the Fc portion of Immunoglobulin (PD-1-Ig) and for PD-L1 it was the 6 histidine motif (PD-L1-His). All binding studies were performed in an HTRF assay buffer consisting of dPBS supplemented with 0.1% […] bovine serum albumin and 0.05% (v/v) Tween-20. For the h/PD-L1-His binding assay, inhibitors were pre-incubated with PD-L1-His (10 nM final) for 15m in 4 μl of assay buffer, followed by addition of PD-1-Ig (20 nM final) in 1 µl of assay buffer and further incubation for 15m. HTRF detection was achieved using europium crypate-labeled anti-Ig (1 nM final) and allophycocyanin (APC) labeled anti-His (20 nM final). Antibodies were diluted in HTRF detection buffer and 5 μl was dispensed on top of the binding reaction. The reaction mixture was allowed to equilibrate for 30 minutes and the resulting signal (665 nm/620 nm ratio) was obtained using an EnVision fluorometer. Additional binding assays were established between the human proteins PD-1-Ig/PD-L2-His (20 & 5 nM, respectively) and CD8O-His/PD-L1-Ig (100 & 10 nM, respectively).
Recombinant Proteins: Human PD-1 (25-167) with a C-terminal human Fc domain of immunoglobulin G (Ig) epitope tag [hPD-1 (25-167)-3S-IG] and human PD-L1 (18-239) with a C-terminal His epitope tag [hPD-L1(18-239)-TVMV-His] were expressed in HEK293T cells and purified sequentially by ProteinA affinity chromatography and size exclusion chromatography. Human PD-L2-His and CD8O-His was obtained through commercial sources.
The table below lists the IC50 values for representative examples of this disclosure measured in the PD-1/PD-L1 Homogenous Time-Resolved Fluorescence (HTRF) binding assay.

PD-1/PD-L1, sequence (Q9NZQ7 other isoform, or with tags, fused parts or gaps): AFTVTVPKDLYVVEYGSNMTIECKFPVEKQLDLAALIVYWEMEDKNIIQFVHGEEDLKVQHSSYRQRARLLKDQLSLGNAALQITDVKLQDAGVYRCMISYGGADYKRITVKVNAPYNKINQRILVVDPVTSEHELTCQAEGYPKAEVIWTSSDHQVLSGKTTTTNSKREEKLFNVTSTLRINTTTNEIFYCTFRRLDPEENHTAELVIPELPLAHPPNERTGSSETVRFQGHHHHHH

Compound | IC50 [nM]
CC(=O)NC1CCN(CCCOc2cccc(-c3cccc4c3CCC4Oc3cc(OCc4cncc(C#N)c4)c(CN[C@@H](CCO)C(=O)O)cc3Cl)c2Cl)CC1 (stereo partly drawn) [Example 1018, (4-((4-(3-(3-(4-Acetamidopiperidin-1-yl)propoxy)-2-chlorophenyl)-2,3-dihydro-1H-inden-1-yl)oxy)-5-chloro-2-((5-cyanopyridin-3-yl)methoxy)benzyl)-L-homoserine] | 2.9
C[C@](CO)(NCc1cc(Cl)c(OC2CCc3c(-c4cccc(OCCCNC[C@H](O)CO)c4Cl)cccc32)cc1OCc1cncc(C#N)c1)C(=O)O (stereo partly drawn) [Example 1019, (2R)-2-((5-chloro-4-((4-(2-chloro-3-(3-(((S)-2,3-dihydroxypropyl)amino)propoxy)phenyl)-2,3-dihydro-1H-inden-1-yl)oxy)-2-((5-cyanopyridin-3-yl)methoxy)benzyl)amino)-3-hydroxy-2-methylpropanoic acid] | 2.5
N#Cc1cncc(COc2cc(OC3CCc4c(-c5cccc(OCCCNC[C@H](O)CO)c5Cl)cccc43)c(Cl)cc2CO)c1 (stereo partly drawn) [Example 1020, 5-((4-Chloro-5-((4-(2-chloro-3-(3-(((S)-2,3-dihydroxypropyl)amino)propoxy)phenyl)-2,3-dihydro-1H-inden-1-yl)oxy)-2-(hydroxymethyl)phenoxy)methyl)nicotinonitrile] | 10.9
N#Cc1cncc(COc2cc(OC3CCc4c(-c5cccc(OCCCNC[C@H](O)CO)c5Cl)cccc43)c(Cl)cc2CN[C@@H](CCO)C(=O)O)c1 (stereo partly drawn) [Example 1021, (5-Chloro-4-((4-(2-chloro-3-(3-(((S)-2,3-dihydroxypropyl)amino)propoxy)phenyl)-2,3-dihydro-1H-inden-1-yl)oxy)-2-((5-cyanopyridin-3-yl)methoxy)benzyl)-L-homoserine] | 1

From patent US11578054B2, “Compounds useful as immunomodulators” (Bristol-Myers Squibb Company, priority 2018, dated 2023)
